The values below are quoted from earlier work in US11051972B1 (priority 2020, dated 2021).

Series [1] relates to novel coronavirus (COVID-19). Conditions: multi-center study in China, journal article [14, 20].

Structures are written as SMILES. Read-outs that look alike come from different tables or passages of the source.

With `CCN(CC)CCCC(C)Nc1ccnc2cc(Cl)ccc12` (stereo not shown) [Chloroquine], the “effectiveness against the novel coronavirus (COVID-19)” value in series [1] is “effective”. Also, the “% Excreted Unchanged or Active Metabolite in Urine” value (in vivo) is listed as 70%.

`C[C@H]1COc2c(N3CCN(C)CC3)c(F)cc3c(=O)c(C(=O)O)cn1c23` [Levaquin]: the “% Excreted Unchanged or Active Metabolite in Urine” value (in vivo) is listed as 85%.

On to `CCC(CC)[C@H](NC(C)=O)[C@@H]1[C@H](O)[C@@H](C(=O)O)C[C@H]1N=C(N)N` [Rapivab], for which the “% Excreted Unchanged or Active Metabolite in Urine” value (urine) is recorded as 90%.

As to `CC(=O)N[C@H]1[C@H]([C@H](O)[C@H](O)CO)OC(C(=O)O)=C[C@@H]1N=C(N)N` [Relenza], the “% Excreted Unchanged or Active Metabolite in Urine” value (urine) was 90%.

Consider `CCC(CC)COC(=O)[C@H](C)N[P@](=O)(OC[C@H]1O[C@@](C#N)(c2ccc3c(N)ncnn23)[C@H](O)[C@@H]1O)Oc1ccccc1` [Remdesevir], for which the “% Excreted Unchanged or Active Metabolite in Urine” value (urine) is reported as 60%.

On to `CCOC(=O)C1=C[C@@H](OC(CC)CC)[C@H](NC(C)=O)[C@@H](N)C1` [Tamiflu], for which the “% Excreted Unchanged or Active Metabolite in Urine” value (urine) was 90%.
